# Values quoted from earlier work as cited in patent publication US8211035B2, “System and method for monitoring health using exhaled breath” (University of Florida Research Foundation, Inc., priority 2002, dated 2012).
smiles,measurement,value
"CC(C)c1cccc(C(C)C)c1O [propofol, 2,6-diisopropylphenol]",dose recovered in urine as hydroxylated and conjugated metabolites,88%
